Data from the supplement of paper PMC10307832.

Legend:
Experiment in all cases: relative viability (nuclei count vs DMSO), 5 days (fraction); higher = more cells survive
Midostaurin + Dasatinib = compound: CO[C@@H]1[C@H](N(C)C(=O)c2ccccc2)C[C@H]2O[C@]1(C)n1c3ccccc3c3c4c(c5c6ccccc6n2c5c31)C(=O)NC4 [Midostaurin] + Cc1nc(Nc2ncc(C(=O)Nc3c(C)cccc3Cl)s2)cc(N2CCN(CCO)CC2)n1 [Dasatinib] (partner 0.075 µM)
Procedure, shortened: (§1)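 Dosing by pin tool came one day after lung cancer cell lines were seeded in 1536-well plates, using either one drug or a fixed anchor-drug dose plus five library-drug doses (not always all listed) in √10 steps. After 5 days, nuclei were counted on 4× images. Relative viability is treated-well nuclei count divided by vehicle-well nuclei count, and values are medians of duplicate plates.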

[1] = compound: CO[C@@H]1[C@H](N(C)C(=O)c2ccccc2)C[C@H]2O[C@]1(C)n1c3ccccc3c3c4c(c5c6ccccc6n2c5c31)C(=O)NC4 [Midostaurin] + CC(=O)c1c(C)c2cnc(Nc3ccc(N4CCNCC4)cn3)nc2n(C2CCCC2)c1=O [Palbociclib] (partner 0.5 µM)
Procedure, shortened: as §1

[2] = compound: COc1cc(-c2nn([C@H]3CC[C@H](N4CCN(C(C)=O)CC4)CC3)c3ncnc(N)c23)ccc1NC(=O)c1cc2ccccc2n1C + COc1cc2c(Oc3ccc(NC(=O)C4(C(=O)Nc5ccc(F)cc5)CC4)cc3F)ccnc2cc1OCCCN1CCOCC1 [Foretinib] (partner 0.25 µM)
Procedure, shortened: as §1

[3] = compound: COc1cc(-c2nn([C@H]3CC[C@H](N4CCN(C(C)=O)CC4)CC3)c3ncnc(N)c23)ccc1NC(=O)c1cc2ccccc2n1C + CS(=O)(=O)N1CCN(Cc2cc3nc(-c4cccc5[nH]ncc45)nc(N4CCOCC4)c3s2)CC1 [Pictilisib] (partner 1 µM)
Procedure, shortened: as §1

[4] = compound: COc1cc(-c2nn([C@H]3CC[C@H](N4CCN(C(C)=O)CC4)CC3)c3ncnc(N)c23)ccc1NC(=O)c1cc2ccccc2n1C + CC(=O)c1c(C)c2cnc(Nc3ccc(N4CCNCC4)cn3)nc2n(C2CCCC2)c1=O [Palbociclib] (partner 0.5 µM)
Procedure, shortened: as §1

Cell Line | relative viability (Midostaurin + Dasatinib; first compound 0.01 µM) | relative viability (Midostaurin + Dasatinib; first compound 0.03162 µM) | relative viability (Midostaurin + Dasatinib; first compound 0.1 µM) | relative viability (Midostaurin + Dasatinib; first compound 0.3162 µM) | relative viability ([1]; first compound 0.01 µM) | relative viability ([1]; first compound 0.03162 µM) | relative viability ([1]; first compound 0.1 µM) | relative viability ([1]; first compound 0.3162 µM) | relative viability ([2]; first compound 0.0128 µM) | relative viability ([2]; first compound 0.04048 µM) | relative viability ([2]; first compound 0.128 µM) | relative viability ([2]; first compound 1.28 µM) | relative viability ([3]; first compound 0.0128 µM) | relative viability ([3]; first compound 0.04048 µM) | relative viability ([3]; first compound 0.128 µM) | relative viability ([3]; first compound 1.28 µM) | relative viability ([4]; first compound 0.0128 µM) | relative viability ([4]; first compound 0.04048 µM) | relative viability ([4]; first compound 0.128 µM) | relative viability ([4]; first compound 1.28 µM)
NCI-H661 | 0.882 | 0.806 | 0.852 | 0.737 | 0.399 | 0.41 | 0.438 | 0.469 | 1.16 | 1.13 | 1.01 | 1.03 | 0.39 | 0.344 | 0.392 | 0.254 | 0.421 | 0.436 | 0.42 | 0.419
NCI-H1793 | 0.481 | 0.38 | 0.345 | 0.362 | 0.305 | 0.349 | 0.354 | 0.342 | 0.669 | 0.809 | 0.648 | 0.406 | 0.424 | 0.288 | 0.285 | 0.311 | 0.367 | 0.342 | 0.261 | 0.239
NCI-H1734 | 0.404 | 0.632 | 0.477 | 0.338 | 0.334 | 0.38 | 0.373 | 0.351 | 0.877 | 0.683 | 0.897 | 0.536 | 0.47 | 0.38 | 0.481 | 0.362 | 0.37 | 0.332 | 0.335 | 0.276
LXF-289 | 0.21 | 0.173 | 0.174 | 0.124 | 0.625 | 0.615 | 0.645 | 0.642 | 1.05 | 0.962 | 0.986 | 1.03 | 0.827 | 0.586 | 0.775 | 0.509 | 0.673 | 0.648 | 0.549 | 0.706
H3255 | 0.346 | 0.29 | 0.37 | 0.354 | 0.317 | 0.327 | 0.333 | 0.342 | 0.761 | 0.813 | 0.849 | 0.557 | 0.523 | 0.408 | 0.49 | 0.278 | 0.324 | 0.316 | 0.349 | 0.318
201T | 0.557 | 0.533 | 0.562 | 0.558 | 0.366 | 0.368 | 0.35 | 0.406 | 1.06 | 1.19 | 0.859 | 0.594 | 0.729 | 0.639 | 0.571 | 0.432 | 0.353 | 0.402 | 0.337 | 0.294
